Source: patent US6902903B1, “Helicobacter pylori diagnostics” (Chiron Corporation, priority 1996, dated 2005)
Like-named read-outs stand apart in the source and are kept apart here.

B1: CagA: Recombinant truncated CagA of 268 amino acids, 29.2 kDa, Glu-748 through Glu-1015, H. pylori strain Chetx-1 (protein, listed as Helicobacter pylori)
chain: MEFKNGKNKDFSKVTQAKSDLENSIKDVIFNQKITDKVDDLNQAVSVAKATGDFSRVEQALADLKNFSKEQLAQQAQKNESLNAGKKSEIYQSVKNGVNGTLVGNGLSQAEATTLSKNFSDIKKELNAKLFGNFNNNNNNGLKNSTEPIYAKVNKKKTGQVASPEEPIYTQVAKKVNAKIDRLNQIASGLGGVGKAAGFPLKRHDKVDDLSKVGRSVSPEPIYATIDDLGGPFPLKRHDKVDDLSKVGLSRNQELAQKIDNLNQAVSE

How the values were obtained:
H. pylori infection [1] = test: Antibiotic therapy of H. pylori infection, response monitored by SIA; format: in vivo, Helicobacter pylori; settings: individuals undergoing antibiotic regimen, determined with the SIA
Description: For the immunoblot assay, strips were processed in a batch fashion with 30 strips per batch. All steps were performed at room temperature. Each strip was numbered and then placed in a separate tube to which was added 1 ml of diluent (phosphate-buffered saline (PBS) with bovine protein stabilizers and detergents, 0.1% sodium azide and 0.05% gentamicin sulfate as preservatives) and 30 μl of a serum sample from an individual known to be infected with H. pylori Type I, suspected of being infected with H. pylori Type I or a control subject, was applied. The tubes were rocked gently for 4 h, the solution removed by aspiration, and 1 ml of fresh diluent was added to each tube. The tubes were rocked for 30 minutes, the solution removed by aspiration and 1 ml of wash buffer made from wash buffer concentrate (50×) (phosphate-buffered detergent solution with 0.01% thimerosal as a preservative) was added to each tube. The contents of each tube were emptied into a single wash vessel and the strips were washed by swirling for 20 seconds. The wash buffer was decanted and 30 ml of fresh buffer added and the process repeated. […] Strips were then read within 3 h of drying. […] The lysate and VacA and CagA bands are then scored from 0 to 4+according to how their band intensity compares to that of the IgG control bands. […]

H. pylori infection [2] = settings: individuals undergoing antibiotic regimen for H. pylori infection; cited from earlier work
[3] = tested on: H. pylori antibodies in serum sample; test: H. pylori strip immunoblot assay (SIA), band reactivity of immobilized antigens with serum samples; format: binding, human; set-up: key: band intensity 0 to 4+ vs IgG controls (low IgG = 1+, high = 3+)
Description: A. An SIA was done as follows. An H. pylori extract containing a mixture of antigens including type-common antigens was obtained from Bioseed, Inc., Hillsborough, Calif. Briefly, the extract was prepared from an H. pylori bacterium obtained from the American Type Culture Collection (ATCC) having an ATCC strain designation of ATCC 43504. The extract was prepared using detergent extraction and sonication.
The VacA and CagA type-specific antigens, described in Examples 1 and 2, respectively, were applied in discrete bands to nitrocellulose strips at concentrations of 1-2 μg/ml. The lysate including the type-common antigens was coated as another discrete band at a concentration of 0.5-1 μg/ml onto the same nitrocellulose strips. As internal controls, additional bands contained purified human IgG at a low (100-185 ng/ml) and high (500-925 ng/ml) concentration. Other strips were coated with the antigens and lysate as described above, however, on these strips, the lysate was first enhanced with the VacA and CagA antigens added to the lysate at a concentration of 0.5-1 μg/ml (VacA) and 0.5-μg/ml (CagA). FIG. 1 is a diagram of a nitrocellulose strip with the antigens as described above.
For the immunoblot assay, strips were processed in a batch fashion with 30 strips per batch. All steps were performed at room temperature. Each strip was numbered and then placed in a separate tube to which was added 1 ml of diluent (phosphate-buffered saline (PBS) with bovine protein stabilizers and detergents, 0.1% sodium azide and 0.05% gentamicin sulfate as preservatives) and 30 μl of a serum sample from an individual known to be infected with H. pylori Type I, suspected of being infected with H. pylori Type I or a control subject, was applied. The tubes were rocked gently for 4 h, the solution removed by aspiration, and 1 ml of fresh diluent was added to each tube. The tubes were rocked for 30 minutes, the solution removed by aspiration and 1 ml of wash buffer made from wash buffer concentrate (50×) (phosphate-buffered detergent solution with 0.01% thimerosal as a preservative) was added to each tube. The contents of each tube were emptied into a single wash vessel and the strips were washed by swirling for 20 seconds. The wash buffer was decanted and 30 ml of fresh buffer added and the process repeated. Residual solution was removed by aspiration and 20 ml of conjugate solution (peroxidase-labeled goat anti-human IgG (heavy and light chains), with bovine protein stabilizers, containing 0.01% thimerosal as a preservative) was added. The vessel was rotated at 110 rpm for 10 minutes, the conjugate solution was decanted and the wash step was repeated three times. Residual solution was again removed by aspiration and 20 ml of substrate/developer (4-chloro-1-napthol in methanol/phosphate-buffered hydrogen peroxide) added, followed by rotation for 15-20 minutes at 110 rpm. The solution was decanted and the strips were washed twice in distilled water. Developed strips were placed face up on absorbent paper and allowed to dry for 30 minutes in the dark. Strips were then read within 3 h of drying. The intensity of the color of the H. pylori antigen bands were assigned values ranging from −(0) to 4+using the following algorithm. The low IgG band is assigned a value of 1+, the high IgG band is assigned a value of 3+. The lysate and VacA and CagA bands are then scored from 0 to 4+according to how their band intensity compares to that of the IgG control bands.
Samples with any of the H. pylori antigen bands scoring 1+ or greater to the lysate band are considered to be positive for H. pylori infection. Reactivity of 1+ or greater to the lysate band, in addition to reactivity of 1+ or greater to the CagA and/or VacA band, is considered positive for H. pylori Type I infection. Samples showing no reactivity of 1+ or greater to any bands are considered negative. […]

antibodies to CagA = settings: cited from earlier work
[4] = Responder to antibiotic therapy, Prebleed

Molecule	% Responders by SIA (H. pylori infection [1]) [%]	Responders (responders/tested) by SIA (H. pylori infection [1])	Response Rate Reported (H. pylori infection [2]) [%]	Band reactivity (intensity value), therapy monitoring ([3]; Non-Responder, 8 M)	Band reactivity (intensity value), therapy monitoring ([3]; Non-Responder, 16 M)	Band reactivity (intensity value), therapy monitoring ([3]; Non-Responder, Prebleed)	Band reactivity (intensity value), therapy monitoring [3, 4]	Band reactivity (intensity value), therapy monitoring ([3]; Responder, 1 M)	Band reactivity (intensity value), therapy monitoring ([3]; Responder, 3 M)	Band reactivity (intensity value), therapy monitoring ([3]; Responder, 6 M)	Band reactivity (intensity value), therapy monitoring ([3]; Responder, 9 M)	Band reactivity (intensity value), therapy monitoring ([3]; Responder, 12 M)	patients CagA seropositive (antibodies to CagA; patients suffering from gastric ulcer)	patients CagA seropositive (antibodies to CagA; patients with duodenal ulcer or duodenitis)
Cc1ncc([N+](=O)[O-])n1CCO [Single, Metronidazole]	20	1/5	19	–	–	–	–	–	–	–	–	–	–	–
VacA: Recombinant 71.2 kDa fusion: 154 aa human SOD, five aa linker, VacA Gly-311 through Ile-819 of H. pylori CCUG17874	–	–	–	2.49	2.10	2.54	0.31	0.26	0.33	0.29	0.21	0.18	–	–
B1	–	–	–	0.99	0.90	1.31	1.92	1.69	1.09	0.90	0.73	0.43	more than 70%	more than 95%
